{"source": "patent US20060293216A1", "about": "“Pharmaceutical compositions comprising an active agent and chitosan for sustained drug release or mucoadhesion” (ADVANCED BIOPOLYMERS AS, priority 2003, published 2006)", "type_in_all_cases": "physicochemical", "key": {"[1]": {"assay": "Release of salicylate through a dialysis membrane with and without chitosan", "details": "30 mM salicylate in 154 mM NaCl, pH 4.5; 3 (w/v)% chitosan (FA 0.41, hydrochloride salt); FIG. 2", "experimental": "The chitosan used in this Example was prepared from a chitosan produced as described in WO 03/011912 (FA 0.41, [η]=1060 ml/g), which was depolymerized and at the same time converted to the chitosan hydrochloride salt using 3M ethanolic HCl. Excess ethanolic chitosan was removed, the chitosan washed with excess 70% ethanol, 96% ethanol and finally dried to obtain the chitosan hydrochloride salt. The intrinsic viscosity was determined to 200 ml/g, corresponding to a number-average molecular weight of 40 000 (Anthonsen et al., 1993, Carbohydr. Polym. (1993) 22 193-201). 30 mM Salicylic acid was dissolved in distilled water upon addition of equimolar amounts of sodium hydroxide, and sodium chloride was added to a final concentration of 154 mM. The pH was adjusted to 4.5. Each of the solutions containing salicylate or paracetamol was added to a small glass vial (10 ml) equipped with a dialysis membrane (d=14.3 mm, cut off 10-12 kDa). The glass vials were placed in a 1 litre reservoir containing 154 mM NaCl, pH 4.5. Samples of 3.0 ml were regularly withdrawn from the reservoir and the absorbance was measured at 297.0 nm (salicylic acid) and 243.3 nm (paracetamol). Each experiment was run with 6 parallels. The same experiment was performed with paracetamol and the salicylate solutions to which had been added 3 (w/v)% of the chitosan. […]"}, "[2]": {"assay": "Release of acetylsalicylic acid from chitosan (dialysis, UV)", "details": "acetylsalicylic acid 100 mg, chitosan 250 mg, against tris buffer pH7", "experimental": "Acetylsalicylic acid (100 mg) and chitosan (various degrees of acetylation) (250 mg) were added to a diluted aqueous HCl solution at pH 2 (10 ml). The mixture was stirred for 30 minutes at 80° C., cooled to room temperature, transferred to a dialysis tube (cut off 12-14 kDa) and dialysed against tris buffer pH7 (100 ml). The amount of acetylsalicylic acid in the dialysate was determined by UV.\n(§1) An experiment without chitosan was performed as a comparison.\nThe amounts of acetylsalicylic acid in dialysate are shown in Table 1 as a percentage of maximum detected amounts."}, "[3]": {"assay": "Release of paracetamol through a dialysis membrane with and without chitosan", "details": "10 mM paracetamol in 154 mM NaCl, pH 4.5; 3 (w/v)% chitosan (FA 0.41, hydrochloride salt); followed for 2 days; FIG. 1", "experimental": "The chitosan used in this Example was prepared from a chitosan produced as described in WO 03/011912 (FA 0.41, [η]=1060 ml/g), which was depolymerized and at the same time converted to the chitosan hydrochloride salt using 3M ethanolic HCl. Excess ethanolic chitosan was removed, the chitosan washed with excess 70% ethanol, 96% ethanol and finally dried to obtain the chitosan hydrochloride salt. The intrinsic viscosity was determined to 200 ml/g, corresponding to a number-average molecular weight of 40 000 (Anthonsen et al., 1993, Carbohydr. Polym. (1993) 22 193-201). 10 mM Paracetamol was dissolved in 154 mM NaCl at pH 4.5. Each of the solutions containing salicylate or paracetamol was added to a small glass vial (10 ml) equipped with a dialysis membrane (d=14.3 mm, cut off 10-12 kDa). The glass vials were placed in a 1 litre reservoir containing 154 mM NaCl, pH 4.5. Samples of 3.0 ml were regularly withdrawn from the reservoir and the absorbance was measured at 297.0 nm (salicylic acid) and 243.3 nm (paracetamol). Each experiment was run with 6 parallels. The same experiment was performed with paracetamol and the salicylate solutions to which had been added 3 (w/v)% of the chitosan. […] No difference in the release profile of the neutral drug paracetamol with and without chitosan could be detected."}, "[4]": {"assay": "Effect of chitosan on availability of norfloxacin (dialysis, UV)", "details": "norfloxacin 100 mg, against tris buffer pH 7", "experimental": "Norfloxacin (100 mg) and chitosan (FA=0.35, η=1250) (250 mg) were added to a diluted aqueous HCl solution pH 2 (10 ml). The mixture was stirred for 2 hours at 80° C., cooled to room temperature and dialysed against tris buffer pH 7 (100 ml). The amount of norfloxacin in dialysate was determined by UV.\nas §1\nThe amounts of norfloxacin in dialysate are shown as a percentage of maximum detected amounts."}, "[5]": {"assay": "Release of warfarin from warfarin/chitosan (dialysis, UV 293 nm)", "details": "buffered solution pH 7.4", "experimental": "The salt of warfarin/chitosan (from Example 7 above) (1.09 g) was suspended in a buffered solution with pH 7.4 (10 ml). The suspension was transferred into the dialysis tube (cut off 12-14 kDa) before the tube was transferred into a buffered solution of pH 7.4 (100 ml) under continuous stirring. 2 ml samples of the dialysate were taken at different times and the UV-absorbances measured with an UV-apparatus at 293 nm. As a control experiment, warfarin (0.38 g, 1.2 mmol) was dissolved in a buffered solution of pH 7.4 (10 ml) and transferred into the dialysis tube (cut off 12-14 kDa). 2 ml samples of the dialysate were taken at different times and the UV-absorbances measured with an UV-apparatus at 293 nm. The amounts of warfarin in dialysate are shown in Table 3 as a percentage of maximum detected amounts."}}}
{"smiles": "O=C(O)c1ccccc1O", "note": "[salicylate, Salicylic acid]", "values": [{"measurement": "release of salicylate with and without chitosan", "setting": "[1]", "result": "clear difference"}]}
{"smiles": "CC(=O)Oc1ccccc1C(=O)O", "note": "[No chitosan, Acetylsalicylic acid]", "values": [{"measurement": "amount of acetylsalicylic acid in dialysate", "setting": "[2]; time for dialysis 0.25 hours", "result": "52 percentage of maximum detected amounts"}, {"measurement": "amount of acetylsalicylic acid in dialysate", "setting": "[2]; time for dialysis 0.5 hours", "result": "87 percentage of maximum detected amounts"}, {"measurement": "amount of acetylsalicylic acid in dialysate", "setting": "[2]; time for dialysis 1 hour", "result": "97 percentage of maximum detected amounts"}, {"measurement": "amount of acetylsalicylic acid in dialysate", "setting": "[2]; time for dialysis 2 hours", "result": "98 percentage of maximum detected amounts"}, {"measurement": "amount of acetylsalicylic acid in dialysate", "setting": "[2]; time for dialysis 19 hours", "result": "99 percentage of maximum detected amounts"}]}
{"smiles": "CC(=O)Nc1ccc(O)cc1", "note": "[paracetamol, Paracetamol]", "values": [{"measurement": "release profile of paracetamol with and without chitosan", "setting": "[3]", "result": "No difference"}]}
{"smiles": "CCn1cc(C(=O)O)c(=O)c2cc(F)c(N3CCNCC3)cc21", "note": "[Without chitosan, Norfloxacin]", "values": [{"measurement": "amount of norfloxacin in dialysate", "setting": "[4]; time for dialysis 0.25 hours", "result": "66 percentage of maximum detected amounts"}, {"measurement": "amount of norfloxacin in dialysate", "setting": "[4]; time for dialysis 0.5 hours", "result": "72 percentage of maximum detected amounts"}, {"measurement": "amount of norfloxacin in dialysate", "setting": "[4]; time for dialysis 1 hour", "result": "100 percentage of maximum detected amounts"}, {"measurement": "amount of norfloxacin in dialysate", "setting": "[4]; time for dialysis 2 hours", "result": "100 percentage of maximum detected amounts"}, {"measurement": "amount of norfloxacin in dialysate", "setting": "[4]; time for dialysis 4 hours", "result": "100 percentage of maximum detected amounts"}]}
{"smiles": "CC(=O)CC(c1ccccc1)c1c(O)c2ccccc2oc1=O", "note": "(stereo not shown) [Warfarin]", "values": [{"measurement": "amount of warfarin in dialysate", "setting": "[5]; time 2½ hours", "result": "49.8 percentage of maximum detected amounts"}, {"measurement": "amount of warfarin in dialysate", "setting": "[5]; time 4 hours", "result": "49.0 percentage of maximum detected amounts"}, {"measurement": "amount of warfarin in dialysate", "setting": "[5]; time 20 hours", "result": "100 percentage of maximum detected amounts"}, {"measurement": "amount of warfarin in dialysate", "setting": "[5]; time ½ hours", "result": "14.8 percentage of maximum detected amounts"}]}
